Data from ChEMBL document CHEMBL1201862, “PubChem BioAssay data set” (2004).
Calls of active or inactive are those of the source.

Experiments:
[1] = target: 5-hydroxytryptamine receptor 2A (Mus musculus, UniProt P35363); assay type: functional, cell-based;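 note: CHO-K1 cells with tagged receptor and beta-arrestin; agonist potency measured as compound-induced activation of the receptor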
[2] = target: Voltage-gated inwardly rectifying potassium channel KCNH2 (Homo sapiens, UniProt Q12809); conditions: Potency;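 note: confirmatory quantitative high-throughput screen measuring inhibition of hERG channel activity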
Mu-type opioid receptor = Mu-type opioid receptor (Homo sapiens, UniProt P35372); assay type: functional, cell-based;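 note: U2OS cells with beta-arrestin recruitment to OPRM1 by beta-gal complementation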
Mu-type opioid receptor, sequence (P35372 whole entry): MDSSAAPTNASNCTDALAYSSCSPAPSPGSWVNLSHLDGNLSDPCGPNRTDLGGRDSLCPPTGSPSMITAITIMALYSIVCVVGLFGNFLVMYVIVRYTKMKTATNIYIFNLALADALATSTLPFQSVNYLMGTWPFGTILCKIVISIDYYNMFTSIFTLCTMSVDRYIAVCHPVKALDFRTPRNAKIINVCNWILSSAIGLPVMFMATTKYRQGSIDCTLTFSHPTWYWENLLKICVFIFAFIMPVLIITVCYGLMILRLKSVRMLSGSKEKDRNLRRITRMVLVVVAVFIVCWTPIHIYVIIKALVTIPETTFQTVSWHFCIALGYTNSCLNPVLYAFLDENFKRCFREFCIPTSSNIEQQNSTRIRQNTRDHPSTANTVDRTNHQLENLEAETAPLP

[3] = target: Palmitoyl-protein thioesterase ABHD10, mitochondrial (Mus musculus, UniProt Q6PE15); assay: Late stage assay provider results from the probe development effort to identify inhibitors of PME-1: fluorescence-based dose response biochemical gel-based competitive Activity-Based Protein Profiling (ABPP) inhibition of ABHD10 Set 2.; assay type: functional
Palmitoyl-protein thioesterase ABHD10, mitochondrial, sequence (Q6PE15 whole entry): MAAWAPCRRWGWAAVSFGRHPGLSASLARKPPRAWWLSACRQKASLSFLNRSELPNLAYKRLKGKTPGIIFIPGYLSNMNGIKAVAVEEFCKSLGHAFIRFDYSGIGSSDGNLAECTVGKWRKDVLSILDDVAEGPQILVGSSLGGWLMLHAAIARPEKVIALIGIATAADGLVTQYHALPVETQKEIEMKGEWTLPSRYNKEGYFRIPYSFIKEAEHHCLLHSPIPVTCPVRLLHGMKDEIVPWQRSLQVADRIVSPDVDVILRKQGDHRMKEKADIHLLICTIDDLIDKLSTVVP

Fatty acid synthase [4] = target: T1, Fatty acid synthase (Homo sapiens, UniProt P49327); assay: inhibition of human FAS-TE enzyme activity – biochemical, endpoint fluorescence intensity, uHTS hits, dose response (AID 624327); assay type: functional;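 note: fluorescence from hydrolysis of an O-methyl fluorescein acyl ester substrate by the enzyme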
T1 sequence (P49327 whole entry): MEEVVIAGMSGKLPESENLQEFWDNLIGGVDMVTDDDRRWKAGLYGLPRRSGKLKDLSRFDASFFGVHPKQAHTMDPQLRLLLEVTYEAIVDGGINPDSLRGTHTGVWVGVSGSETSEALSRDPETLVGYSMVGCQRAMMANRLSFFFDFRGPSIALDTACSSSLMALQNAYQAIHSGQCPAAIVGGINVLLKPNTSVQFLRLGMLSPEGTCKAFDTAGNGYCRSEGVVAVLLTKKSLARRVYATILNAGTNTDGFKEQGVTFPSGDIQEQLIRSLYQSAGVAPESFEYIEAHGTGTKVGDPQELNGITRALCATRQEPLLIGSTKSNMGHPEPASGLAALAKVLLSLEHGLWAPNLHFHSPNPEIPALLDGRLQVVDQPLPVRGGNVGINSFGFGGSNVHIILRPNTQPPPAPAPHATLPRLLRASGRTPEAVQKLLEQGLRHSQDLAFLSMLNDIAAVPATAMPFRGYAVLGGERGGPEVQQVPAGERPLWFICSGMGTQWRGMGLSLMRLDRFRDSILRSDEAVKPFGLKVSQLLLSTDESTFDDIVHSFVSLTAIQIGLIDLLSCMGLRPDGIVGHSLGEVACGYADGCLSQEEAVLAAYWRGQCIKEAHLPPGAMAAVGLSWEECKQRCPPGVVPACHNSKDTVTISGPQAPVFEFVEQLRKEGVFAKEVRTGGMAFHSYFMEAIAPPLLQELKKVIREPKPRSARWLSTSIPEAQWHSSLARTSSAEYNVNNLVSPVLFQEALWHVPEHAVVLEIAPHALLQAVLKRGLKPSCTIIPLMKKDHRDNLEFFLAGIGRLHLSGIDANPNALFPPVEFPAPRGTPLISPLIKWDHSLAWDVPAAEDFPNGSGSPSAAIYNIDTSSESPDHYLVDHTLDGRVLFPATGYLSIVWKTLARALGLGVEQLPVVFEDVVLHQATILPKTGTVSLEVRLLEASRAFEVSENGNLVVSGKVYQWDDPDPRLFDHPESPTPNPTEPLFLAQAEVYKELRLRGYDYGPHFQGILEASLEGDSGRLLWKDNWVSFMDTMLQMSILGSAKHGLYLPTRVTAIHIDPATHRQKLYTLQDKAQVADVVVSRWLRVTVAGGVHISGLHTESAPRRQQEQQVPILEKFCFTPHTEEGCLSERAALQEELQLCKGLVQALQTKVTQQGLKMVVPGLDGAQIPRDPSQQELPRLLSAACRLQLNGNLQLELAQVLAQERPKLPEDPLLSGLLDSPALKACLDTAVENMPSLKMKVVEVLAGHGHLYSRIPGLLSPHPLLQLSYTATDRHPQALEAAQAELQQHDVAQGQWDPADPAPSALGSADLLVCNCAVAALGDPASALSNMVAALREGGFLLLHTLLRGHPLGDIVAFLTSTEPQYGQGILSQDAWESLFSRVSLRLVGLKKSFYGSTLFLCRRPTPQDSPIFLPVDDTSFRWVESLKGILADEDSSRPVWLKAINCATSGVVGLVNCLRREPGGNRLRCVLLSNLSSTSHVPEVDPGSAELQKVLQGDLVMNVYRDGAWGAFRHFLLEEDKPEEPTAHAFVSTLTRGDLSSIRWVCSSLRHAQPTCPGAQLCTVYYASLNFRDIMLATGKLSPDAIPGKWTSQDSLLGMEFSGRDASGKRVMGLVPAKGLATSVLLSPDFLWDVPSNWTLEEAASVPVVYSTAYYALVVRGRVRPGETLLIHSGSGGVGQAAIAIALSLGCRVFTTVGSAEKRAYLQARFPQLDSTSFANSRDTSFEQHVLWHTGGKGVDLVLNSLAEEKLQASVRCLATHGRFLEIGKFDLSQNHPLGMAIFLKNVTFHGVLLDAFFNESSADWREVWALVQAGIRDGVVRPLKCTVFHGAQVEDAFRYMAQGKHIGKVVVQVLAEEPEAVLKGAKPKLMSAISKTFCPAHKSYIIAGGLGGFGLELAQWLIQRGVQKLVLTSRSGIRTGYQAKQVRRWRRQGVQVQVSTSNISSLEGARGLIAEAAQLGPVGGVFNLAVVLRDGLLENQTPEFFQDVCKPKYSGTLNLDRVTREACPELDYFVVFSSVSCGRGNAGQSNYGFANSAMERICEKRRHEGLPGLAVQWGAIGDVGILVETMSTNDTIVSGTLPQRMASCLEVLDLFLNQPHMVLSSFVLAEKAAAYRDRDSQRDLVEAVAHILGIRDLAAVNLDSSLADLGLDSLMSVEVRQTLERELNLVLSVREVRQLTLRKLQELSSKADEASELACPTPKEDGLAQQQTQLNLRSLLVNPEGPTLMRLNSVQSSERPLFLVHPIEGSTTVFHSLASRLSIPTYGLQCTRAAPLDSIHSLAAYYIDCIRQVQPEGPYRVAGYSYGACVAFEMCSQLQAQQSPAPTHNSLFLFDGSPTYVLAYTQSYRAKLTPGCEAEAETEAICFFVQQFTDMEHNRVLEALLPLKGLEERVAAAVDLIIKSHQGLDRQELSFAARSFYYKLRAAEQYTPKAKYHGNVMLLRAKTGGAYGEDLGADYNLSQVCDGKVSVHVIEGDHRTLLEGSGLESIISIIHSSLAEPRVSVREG

Fatty acid synthase [5] = target: T1, Fatty acid synthase; assay: inhibition of human FAS-TE enzyme activity – biochemical, kinetic fluorescence intensity, dose response (AID 624326); assay type: functional;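 note: rate of fluorescence rise from hydrolysis of a fluorogenic O-methyl fluorescein ester substrate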
[6] = blockers of CRF-binding protein–CRF-R2 complex – cell-based, uHTS hits, 384-well, dose response (AID 651639); assay type: functional, Homo sapiens; conditions: read-out: IC50_Mean
[7] = target: T2, Corticotropin-releasing factor receptor 2/Corticotropin-releasing factor-binding protein (Homo sapiens, UniProt P24387+Q13324); assay: activators of CRF receptor 2 with binding protein – uHTS hits, confirmation (AID 602473); assay type: functional; conditions: read-out: EC50_Mean
T2 sequence (Q13324 whole entry): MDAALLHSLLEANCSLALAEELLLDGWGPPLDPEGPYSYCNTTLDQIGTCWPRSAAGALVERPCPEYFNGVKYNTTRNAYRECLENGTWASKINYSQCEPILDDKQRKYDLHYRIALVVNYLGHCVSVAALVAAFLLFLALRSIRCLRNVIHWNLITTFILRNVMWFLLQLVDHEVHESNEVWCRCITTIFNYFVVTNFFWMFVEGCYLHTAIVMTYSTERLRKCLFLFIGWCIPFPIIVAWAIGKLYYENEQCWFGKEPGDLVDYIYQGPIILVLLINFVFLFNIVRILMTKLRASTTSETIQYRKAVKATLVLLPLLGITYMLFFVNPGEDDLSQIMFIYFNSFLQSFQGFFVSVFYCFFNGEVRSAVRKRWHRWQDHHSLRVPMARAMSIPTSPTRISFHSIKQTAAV
T2 sequence (P24387 whole entry): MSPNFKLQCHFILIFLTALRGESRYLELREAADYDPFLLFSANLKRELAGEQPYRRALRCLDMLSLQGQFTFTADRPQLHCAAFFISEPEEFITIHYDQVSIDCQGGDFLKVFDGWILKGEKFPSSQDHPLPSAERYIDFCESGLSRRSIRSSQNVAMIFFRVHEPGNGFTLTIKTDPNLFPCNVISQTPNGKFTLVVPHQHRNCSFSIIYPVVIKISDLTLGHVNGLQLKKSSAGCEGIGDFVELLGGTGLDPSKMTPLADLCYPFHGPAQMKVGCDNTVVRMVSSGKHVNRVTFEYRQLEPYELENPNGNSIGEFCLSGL

[8] = target: T2, Corticotropin-releasing factor receptor 2/Corticotropin-releasing factor-binding protein; assay: Dose Response confirmation of uHTS hits for small molecule antagonists of the CRF-binding protein and CRF-R2 receptor complex.; assay type: functional; conditions: read-out: IC50_Mean
HEK293 [9] = assay: optical interference in Abeta FP readout, dose response, artefact control for IDE activator project, biochemical, fluorescence polarization (AID 588442); assay type: functional, cell-based; conditions: Homo sapiens
HEK293 [10] = assay: membrane integrity loss in HEK cells – cell-based, fluorescence, cytotoxicity control for IDE activator project, dose response (AID 588440); assay type: functional; conditions: Homo sapiens;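 note: cytotoxicity by LDH release measuring loss of membrane integrity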
Insulin-degrading enzyme [11] = target: T3, Insulin-degrading enzyme (Homo sapiens, UniProt P14735); assay: recombinant IDE activation, cell-free – biochemical, fluorescence polarization, counter-screen for IDE activator project, dose response (AID 588681)
T3 sequence (P14735 whole entry): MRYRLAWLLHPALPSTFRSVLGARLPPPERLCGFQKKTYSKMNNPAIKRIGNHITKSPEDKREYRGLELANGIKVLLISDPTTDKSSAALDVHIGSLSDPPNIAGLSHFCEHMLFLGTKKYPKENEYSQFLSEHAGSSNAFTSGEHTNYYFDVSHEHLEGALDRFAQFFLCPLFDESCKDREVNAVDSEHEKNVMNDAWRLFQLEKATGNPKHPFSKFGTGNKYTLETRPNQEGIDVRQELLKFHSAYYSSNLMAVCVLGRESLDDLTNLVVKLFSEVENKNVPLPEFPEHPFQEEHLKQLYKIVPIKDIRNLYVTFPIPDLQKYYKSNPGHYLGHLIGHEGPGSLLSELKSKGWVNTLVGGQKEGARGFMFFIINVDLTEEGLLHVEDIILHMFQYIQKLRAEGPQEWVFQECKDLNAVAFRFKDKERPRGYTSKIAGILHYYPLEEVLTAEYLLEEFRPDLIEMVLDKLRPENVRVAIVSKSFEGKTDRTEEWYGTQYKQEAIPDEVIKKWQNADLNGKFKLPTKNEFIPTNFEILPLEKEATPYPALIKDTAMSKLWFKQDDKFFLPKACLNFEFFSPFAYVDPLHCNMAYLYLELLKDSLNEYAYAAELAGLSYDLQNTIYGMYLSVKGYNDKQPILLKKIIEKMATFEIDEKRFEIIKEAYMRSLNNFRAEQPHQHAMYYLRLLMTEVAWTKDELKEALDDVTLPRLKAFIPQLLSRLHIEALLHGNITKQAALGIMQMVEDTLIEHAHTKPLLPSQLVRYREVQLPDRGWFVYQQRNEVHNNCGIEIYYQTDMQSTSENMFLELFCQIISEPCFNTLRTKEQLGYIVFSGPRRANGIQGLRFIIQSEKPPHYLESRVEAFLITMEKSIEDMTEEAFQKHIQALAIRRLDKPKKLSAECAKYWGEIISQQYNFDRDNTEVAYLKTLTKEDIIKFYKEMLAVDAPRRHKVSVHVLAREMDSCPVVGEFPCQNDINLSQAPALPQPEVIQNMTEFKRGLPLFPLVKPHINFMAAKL

Beta-lactamase [12] = target: Beta-lactamase (Pseudomonas aeruginosa, UniProt Q79MP6);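 note: biochemical dose-response test of metallo-beta-lactamase enzyme inhibition, read out by epi-absorbance; purified recombinant IMP-1 metallo-beta-lactamase with nitrocefin as substrate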
Beta-lactamase (Pseudomonas aeruginosa, UniProt Q79MP6), sequence (Q79MP6 whole entry): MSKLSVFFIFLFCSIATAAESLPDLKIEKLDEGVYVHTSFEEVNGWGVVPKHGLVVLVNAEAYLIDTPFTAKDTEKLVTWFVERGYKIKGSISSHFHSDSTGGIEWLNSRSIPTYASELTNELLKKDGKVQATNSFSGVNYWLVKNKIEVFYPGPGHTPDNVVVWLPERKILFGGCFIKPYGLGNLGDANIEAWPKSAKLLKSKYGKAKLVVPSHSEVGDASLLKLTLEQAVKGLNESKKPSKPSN

Beta-lactamase [13] = target: Beta-lactamase (Salmonella choleraesuis (strain SC-B67), UniProt Q5J463)
Beta-lactamase (Salmonella choleraesuis (strain SC-B67), UniProt Q5J463), sequence (Q5J463 whole entry): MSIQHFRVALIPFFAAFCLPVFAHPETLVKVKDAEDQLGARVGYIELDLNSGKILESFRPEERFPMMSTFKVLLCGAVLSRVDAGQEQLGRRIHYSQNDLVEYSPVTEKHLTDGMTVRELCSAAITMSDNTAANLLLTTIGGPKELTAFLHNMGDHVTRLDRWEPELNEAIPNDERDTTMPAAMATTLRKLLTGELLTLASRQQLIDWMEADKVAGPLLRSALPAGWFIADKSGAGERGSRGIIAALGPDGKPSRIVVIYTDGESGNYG

Insulin-degrading enzyme [14] = target: T3, Insulin-degrading enzyme; assay: cellular IDE activation of Abeta substrate cleavage – fluorescence polarization, HEK cells, dose response (AID 588439); assay type: functional, cell-based

5-hydroxytryptamine receptor 2A, sequence (P35363 whole entry): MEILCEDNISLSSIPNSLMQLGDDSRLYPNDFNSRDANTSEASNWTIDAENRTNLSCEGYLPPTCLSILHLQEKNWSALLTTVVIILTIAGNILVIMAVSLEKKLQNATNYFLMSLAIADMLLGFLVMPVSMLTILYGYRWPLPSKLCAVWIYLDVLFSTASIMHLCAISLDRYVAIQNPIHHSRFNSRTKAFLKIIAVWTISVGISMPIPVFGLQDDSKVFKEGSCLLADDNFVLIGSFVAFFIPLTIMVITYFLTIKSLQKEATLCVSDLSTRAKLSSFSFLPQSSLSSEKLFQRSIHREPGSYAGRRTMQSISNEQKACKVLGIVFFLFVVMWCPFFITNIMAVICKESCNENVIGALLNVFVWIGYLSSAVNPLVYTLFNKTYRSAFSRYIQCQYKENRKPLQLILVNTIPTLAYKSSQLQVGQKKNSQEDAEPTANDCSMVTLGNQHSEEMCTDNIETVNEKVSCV

Q: Which results are given for CN1CCc2cc(O)c(O)cc2C(c2ccccc2)C1 (stereo not given)?
A: EC50 [1]: 1.36 µM (active); AC50 [2]: 35.5 µM (inconclusive); EC50 (Mu-type opioid receptor): 92.5 µM (inactive)

Q: Which results are given for CC[C@@]1(c2cccc(C)c2)C(=O)N(C(=O)OC)N1C(=O)OC?
A: IC50 [3]: 0.413 µM (active); IC50 (Fatty acid synthase [4]): 6.22 µM (active); IC50 (Fatty acid synthase [5]): 5.96 µM (active)

Q: For CCOc1cc(-c2cn(S(=O)(=O)c3cccc4nsnc34)nc2N)cc(OCC)c1OCC, which IC50 [6] is on record?
A: Its IC50 is > 20 µM (inactive).

Q: And the EC50 [7]?
A: Its EC50 is > 53 µM (inactive).

Q: And the IC50 [8]?
A: The IC50 was 21.1 µM (active).

Q: With N#CC(C#N)=C1C=C2C=C(N3CCCCCC3)CCC2CC1 (stereo not given) as the compound, how does the EC50 (HEK293 [9]) read?
A: Its EC50 is > 54.7 µM (inactive).

Q: And the IC50 (HEK293 [10])?
A: The IC50 was > 89.1 µM (inactive).

Q: What about the EC50 (Insulin-degrading enzyme [11]) of the same compound?
A: Its EC50 is > 54.7 µM (inactive).

Q: What about the IC50 (Beta-lactamase [12]) of the same compound?
A: The IC50 was 2.78 µM (active).

Q: And the IC50 (Beta-lactamase [13])?
A: The IC50 was 1.04 µM (active).

Q: And the EC50 (Insulin-degrading enzyme [14])?
A: Its EC50 is > 54.7 µM (inactive).
